Data set [1] has as its target Hypoxia-inducible factor 1-alpha (Homo sapiens) (UniProt Q16665). In words: Stabilization of HIF-1 alpha in human HeLa cells at 100 uM incubated for 24 hrs by Western blot analysis. Type of data set: cell-based.
The test system of data set [2] is U2OS. In words: Cytotoxicity against human U2OS cells assessed as effect on cell viability at 100 uM measured after 24 hrs by MTT assay. The format is toxicity, cell-based. (Tetrazolium assays rely on reduction of a dye to a coloured formazan, in cell work by metabolically active cells.)
In data set [3] the test system is HeLa. As to the kind of experiment: Cytotoxicity against human HeLa cells assessed as effect on cell viability at 100 uM measured after 24 hrs by crystal violet staining based assay. Type of data set: toxicity.
Data set [4] concerns HeLa. In words: Stabilization of HIF-1 alpha OH in human HeLa cells at 100 uM incubated for 24 hrs by Western blot analysis. The format is cell-based.
Data set [5] can be described thus: Binding affinity to VBC (unknown origin) using FAM-DEALA-Hyp-YIPD as substrate by fluorescence polarization assay. The arrangement: species or system Homo sapiens. For orientation: Polarisation of emitted light reports the rotation of a fluorescent probe.
Data set [6] is described as follows: Octanol-water partition coefficient, logP of the compound. The format is physicochemical.
A further data set has as its system 786-0. In words: Cytotoxicity against human 786-0 cells assessed as effect on cell viability at 100 uM measured after 24 hrs by MTT assay. The format is toxicity, cell-based. The settings on record: 786-0, 24 h.
A short description of data set [7]: Octanol/water partition coefficient, logD of the compound at pH 7.4. The format is physicochemical.
Data set [8] concerns U2OS. As to the kind of experiment: Upregulation of HIF-1 alpha in human U2OS cells at 100 uM incubated for 24 hrs by Western blot analysis. The format is functional, cell-based. On the technique in general: Immunoblotting shows a protein as a band on a membrane.
In data set [9] the test system is HeLa. In words: Upregulation of HIF-1 alpha in human HeLa cells at 100 uM incubated for 24 hrs by Western blot analysis. The format is functional, cell-based.

pIC50: −log10 of the molar value. Activity calls are given as the source filed them. No cut-off for these calls is given here.

Sequence of Hypoxia-inducible factor 1-alpha (Homo sapiens) (Q16665 whole entry, looked up): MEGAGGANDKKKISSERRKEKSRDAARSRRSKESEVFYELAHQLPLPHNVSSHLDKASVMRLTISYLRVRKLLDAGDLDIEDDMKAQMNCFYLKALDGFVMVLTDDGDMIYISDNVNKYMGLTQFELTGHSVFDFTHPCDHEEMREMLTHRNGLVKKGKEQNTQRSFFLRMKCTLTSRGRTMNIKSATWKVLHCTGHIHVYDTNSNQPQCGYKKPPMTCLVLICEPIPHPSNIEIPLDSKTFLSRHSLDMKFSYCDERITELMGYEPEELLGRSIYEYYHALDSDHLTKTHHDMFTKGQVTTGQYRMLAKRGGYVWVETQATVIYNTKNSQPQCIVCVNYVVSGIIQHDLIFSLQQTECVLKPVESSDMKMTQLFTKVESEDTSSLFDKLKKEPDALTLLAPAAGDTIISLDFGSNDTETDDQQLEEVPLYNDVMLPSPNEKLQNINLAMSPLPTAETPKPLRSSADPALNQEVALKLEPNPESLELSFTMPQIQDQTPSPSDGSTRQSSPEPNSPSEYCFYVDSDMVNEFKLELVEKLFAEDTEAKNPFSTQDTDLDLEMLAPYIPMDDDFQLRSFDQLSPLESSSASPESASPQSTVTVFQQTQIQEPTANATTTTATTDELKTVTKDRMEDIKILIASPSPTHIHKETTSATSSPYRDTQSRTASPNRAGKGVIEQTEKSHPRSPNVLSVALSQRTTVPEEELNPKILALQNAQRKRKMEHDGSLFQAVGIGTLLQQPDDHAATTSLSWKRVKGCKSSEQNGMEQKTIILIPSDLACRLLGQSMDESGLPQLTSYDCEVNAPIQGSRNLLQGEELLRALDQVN

As to `CCCC[C@H](NC(=O)[C@@H]1C[C@@H](O)CN1C(=O)[C@@H](NC(C)=O)C(C)(C)C)c1ccc(-c2scnc2C)cc1`, the Activity in data set [1] is 1.4 fold; in the data set with U2OS [2] it was “Non-Toxic”; in the data set with HeLa [3], “Non-Toxic”; in the data set with HeLa [4] it was 1.4 fold; in the data set on 786-0, “Non-Toxic”. The negative logarithm of the IC50 (pIC50) (in general, −log10 of the IC50, conventionally taken in molar units) in data set [5] was 6.46. The logP – broadly, the decadic logarithm of the partition coefficient of the neutral form, usually between octanol and water – in data set [6] (read-out: logP) turned out to be 2.75. Also, in data set [7] (read-out: logD), the logD (as a rule, lipophilicity at a set pH, counting ionised and neutral species) came out at 2.75.

With `CC(=O)N[C@H](C(=O)N1C[C@H](O)C[C@H]1C(=O)N[C@@H](CCc1ccncc1)c1ccc(-c2scnc2C)cc1)C(C)(C)C`, the Activity in [1] is 0.99 fold; in the data set on U2OS [2] it was “Non-Toxic”; with HeLa [3], “Non-Toxic”; in the data set on HeLa [4], 2.25 fold; with 786-0, “Non-Toxic”. The same compound gave a pIC50 in [5] of 6.65. In data set [6], this compound registered a logP of 2.18. This compound showed a logD in [7] of 2.7.

`CC(=O)N[C@H](C(=O)N1C[C@H](O)C[C@H]1C(=O)N[C@@H](CCC(C)(C)C)c1ccc(-c2scnc2C)cc1)C(C)(C)C`: the Activity in data set [1] is 2.22 fold; with HeLa [3] it was “Non-Toxic”; in the data set on HeLa [4] it was 1.21 fold; in the data set on 786-0, “Non-Toxic”. In addition, in data set [5], the pIC50 is 6.78. For the same compound, in data set [6] (read-out: logP), the logP came to 3.21. The logD in data set [7] (read-out: logD) amounted to 3.21.

Regarding `O=C(O)CNC(=O)c1c(O)c2ccccc2n(Cc2ccccc2)c1=O`, the outcome in the data set on U2OS [8] and in the data set on HeLa [9] was Active.

In the case of `CC(=O)N[C@H](C(=O)N1C[C@H](O)C[C@H]1C(=O)N[C@@H](CCc1ccc(Br)cc1)c1ccc(-c2scnc2C)cc1)C(C)(C)C`, the Activity in [1] was 1.88 fold; with HeLa [3], “Non-Toxic”; in the data set with HeLa [4], 0.91 fold; in the data set with 786-0 it was “Non-Toxic”. In data set [5], the pIC50 is 6.72. Besides, the lipophilicity (logP) in [6] (read-out: logP) was determined as 4.08. Moreover, the outcome with U2OS [8] was Active. Moreover, in [7] (read-out: logD), the logD was 4.08.

For the compound `CC(=O)N[C@H](C(=O)N1C[C@H](O)C[C@H]1C(=O)N[C@@H](CCC(=O)O)c1ccc(-c2scnc2C)cc1)C(C)(C)C`, the Activity in data set [1] is 1.91 fold; with U2OS [2] it was “Non-Toxic”; in the data set on HeLa [3], “Non-Toxic”; in the data set on HeLa [4] it was 0.99 fold; in the data set on 786-0, “Non-Toxic”. This compound also had a negative-log IC50 (pIC50) in data set [5] of 7.20. Also, the log partition coefficient (logP) in data set [6] (read-out: logP) turned out to be 1.02. Besides, the result with U2OS [8] was Active. Moreover, the logD in data set [7] (read-out: logD) was -0.44.

For `CCOC(=O)CC[C@H](NC(=O)[C@@H]1C[C@@H](O)CN1C(=O)[C@@H](NC(C)=O)C(C)(C)C)c1ccc(-c2scnc2C)cc1`, the Activity in data set [1] was 1.64 fold; in the data set with U2OS [2] it was “Non-Toxic”; in the data set with HeLa [3], “Non-Toxic”; in the data set with HeLa [4] it was 1.31 fold; in the data set on 786-0, “Non-Toxic”. The compound further showed a pIC50 in data set [5] of 7.09. Besides, the lipophilicity (logP) in data set [6] (read-out: logP) is 1.59. The result in the data set on U2OS [8] was Active. Moreover, in [7] (read-out: logD), the pH-dependent lipophilicity (logD) is 1.59.

With `CC(=O)N[C@H](C(=O)N1C[C@H](O)C[C@H]1C(=O)NCc1ccc(-c2scnc2C)cc1)C(C)(C)C`, the results for the Activity (in [1]; with HeLa [3]; with HeLa [4]) were 1 fold, “Non-Toxic” and 1 fold, respectively. In addition, the pIC50 in data set [5] is 6.69. Further, the logP in [6] (read-out: logP) worked out at 0.94. Further, the logD in [7] (read-out: logD) came to 0.94.

Regarding `CC(=O)N[C@H](C(=O)N1C[C@H](O)C[C@H]1C(=O)N[C@@H](c1ccccc1)c1ccc(-c2scnc2C)cc1)C(C)(C)C`, the Activity in data set [1] was 2.21 fold; with HeLa [3], “Non-Toxic”; with HeLa [4], 1.01 fold; in the data set with 786-0, “Non-Toxic”. This compound gave a pIC50 in data set [5] of 6.64. Further, in data set [6] (read-out: logP), the logP came out at 2.55. In data set [7] (read-out: logD), the logD came to 2.55.

Take `CC(=O)N[C@H](C(=O)N1C[C@H](O)C[C@H]1C(=O)N[C@@H](CCc1ccc(O)cc1)c1ccc(-c2scnc2C)cc1)C(C)(C)C`: the Activity was 1.79 fold in data set [1], “Non-Toxic” with HeLa [3], 0.75 fold with HeLa [4] and “Non-Toxic” in the data set on 786-0. In [5], the pIC50 was 6.71. For the same compound, the logP in data set [6] (read-out: logP) turned out to be 3.08. The outcome in the data set with U2OS [8] was Active. Moreover, the logD in data set [7] (read-out: logD) is 3.08.

These data come from ChEMBL document CHEMBL5143509, “An efficient strategy for digging protein-protein interactions for rational drug design - A case study with HIF-1α/VHL” (Eur J Med Chem, 2022).
